Measurements from ChEMBL document CHEMBL3853262 (Medchemcomm, 2016).
Active and inactive are the calls of the source. No cut-off for these calls is given here.

What was measured:
THP-1 [1] = assay: Proapoptotic activity in human THP1 cells assessed as late apoptotic cells at 25 uM after 5 hrs by annexin V/propidium iodide staining-based capillary cytometric method relative to control; type: functional
NTERA-2-cl-D1 [2] = assay: Induction of apoptosis in human NT2/D1 cells assessed as late apoptotic cells at 25 uM after 4 hrs in presence of pan caspase inhibitor Z-VAD-fmk by annexin V/propidium iodide staining-based capillary cytometric method (reference value: 0.70%); type: functional
ASPC1 = assay: Proapoptotic activity in human AsPC1 cells by annexin V-FITC/propidium iodide staining-based capillary cytometric method; type: functional, cell-based
THP-1 [3] = assay: Proapoptotic activity in human THP1 cells assessed as early apoptotic cells at 25 uM after 7 hrs by annexin V/propidium iodide staining-based capillary cytometric method relative to control; type: functional
NTERA-2-cl-D1 [4] = assay: Proapoptotic activity in human NT2/D1 cells assessed as late apoptotic cells at 25 uM after 7 hrs by annexin V/propidium iodide staining-based capillary cytometric method relative to control; type: functional
NTERA-2-cl-D1 [5] = assay: Proapoptotic activity in human NT2/D1 cells assessed as necrotic cells at 25 uM after 1 hr by annexin V/propidium iodide staining-based capillary cytometric method relative to control; type: functional
THP-1 [6] = assay: Induction of apoptosis in human THP1 cells assessed as activation of caspase 8/9 at 25 uM by 7-AAD staining-based capillary cytometric method; type: functional, cell-based
NTERA-2-cl-D1 [7] = assay: Proapoptotic activity in human NT2/D1 cells assessed as early apoptotic cells at 25 uM after 3 hrs by annexin V/propidium iodide staining-based capillary cytometric method relative to control; type: functional
NTERA-2-cl-D1 [8] = assay: Proapoptotic activity in human NT2/D1 cells assessed as late apoptotic cells at 25 uM after 5 hrs by annexin V/propidium iodide staining-based capillary cytometric method relative to control; type: functional
NTERA-2-cl-D1 [9] = assay: Induction of apoptosis in human NT2/D1 cells assessed as early apoptotic cells at 25 uM after 4 hrs in presence of pan caspase inhibitor Z-VAD-fmk by annexin V/propidium iodide staining-based capillary cytometric method (reference value: 3.40%); type: functional
NTERA-2-cl-D1 [10] = assay: Induction of apoptosis in human NT2/D1 cells assessed as early apoptotic cells at 25 uM after 4 hrs by annexin V/propidium iodide staining-based capillary cytometric method (reference value: 3.40%); type: functional
THP-1 [11] = assay: Proapoptotic activity in human THP1 cells assessed as necrotic cells at 25 uM after 3 hrs by annexin V/propidium iodide staining-based capillary cytometric method relative to control; type: functional
NTERA-2-cl-D1 [12] = assay: Proapoptotic activity in human NT2/D1 cells by annexin V-FITC/propidium iodide staining-based capillary cytometric method; type: functional, cell-based
NTERA-2-cl-D1 [13] = assay: Proapoptotic activity in human NT2/D1 cells assessed as late apoptotic cells at 25 uM after 1 hr by annexin V/propidium iodide staining-based capillary cytometric method relative to control; type: functional
THP-1 [14] = assay: Induction of apoptosis in human THP1 cells assessed as […] cells at 25 uM after 4 hrs in presence of pan caspase inhibitor Z-VAD-fmk by annexin V/propidium iodide staining-based capillary cytometric method (reference value: 96.40%); type: functional
THP-1 [15] = assay: Induction of apoptosis in human THP1 cells assessed as late necrotic cells at 25 uM after 4 hrs in presence of pan caspase inhibitor Z-VAD-fmk by annexin V/propidium iodide staining-based capillary cytometric method (reference value: 0.04%); type: functional
THP-1 [16] = assay: Proapoptotic activity in human THP1 cells assessed as necrotic cells at 25 uM after 1 hr by annexin V/propidium iodide staining-based capillary cytometric method relative to control; type: functional
NTERA-2-cl-D1 [17] = assay: Induction of apoptosis in human NT2/D1 cells assessed as activation of caspase 3/7 by measuring DNA fragmentation at 25 uM after 3 hrs by 7-AAD staining-based capillary cytometric method; type: functional, cell-based
NTERA-2-cl-D1 [18] = assay: Proapoptotic activity in human NT2/D1 cells assessed as viable cells at 25 uM after 5 hrs by annexin V/propidium iodide staining-based capillary cytometric method relative to control; type: functional; conditions: NTERA-2-cl-D1, 5 h, read-out: Activity
THP-1 [19] = assay: Proapoptotic activity in human THP1 cells assessed as viable cells at 25 uM after 7 hrs by annexin V/propidium iodide staining-based capillary cytometric method relative to control; type: functional; conditions: THP-1, 7 h, read-out: Activity
NTERA-2-cl-D1 [20] = assay: Induction of apoptosis in human NT2/D1 cells assessed as necrotic cells at 25 uM after 4 hrs in presence of pan caspase inhibitor Z-VAD-fmk by annexin V/propidium iodide staining-based capillary cytometric method (reference value: 0.10%); type: functional
NTERA-2-cl-D1 [21] = assay: Proapoptotic activity in human NT2/D1 cells assessed as early apoptotic cells at 25 uM after 7 hrs by annexin V/propidium iodide staining-based capillary cytometric method relative to control; type: functional
THP-1 [22] = assay: Proapoptotic activity in human THP1 cells assessed as early apoptotic cells at 25 uM after 3 hrs by annexin V/propidium iodide staining-based capillary cytometric method relative to control; type: functional
NTERA-2-cl-D1 [23] = assay: Proapoptotic activity in human NT2/D1 cells assessed as early apoptotic cells at 25 uM after 1 hr by annexin V/propidium iodide staining-based capillary cytometric method relative to control; type: functional
NTERA-2-cl-D1 [24] = assay: Proapoptotic activity in human NT2/D1 cells assessed as late apoptotic cells at 25 uM after 3 hrs by annexin V/propidium iodide staining-based capillary cytometric method relative to control; type: functional
NTERA-2-cl-D1 [25] = assay: Induction of apoptosis in human NT2/D1 cells assessed as viable cells at 25 uM after 4 hrs in presence of pan caspase inhibitor Z-VAD-fmk by annexin V/propidium iodide staining-based capillary cytometric method (reference value: 95.80%); type: functional; conditions: NTERA-2-cl-D1, 4 h, read-out: Activity
NTERA-2-cl-D1 [26] = assay: Induction of apoptosis in human NT2/D1 cells assessed as activation of caspase 8/9 at 25 uM by 7-AAD staining-based capillary cytometric method; type: functional, cell-based
THP-1 [27] = assay: Proapoptotic activity in human THP1 cells assessed as necrotic cells at 25 uM after 7 hrs by annexin V/propidium iodide staining-based capillary cytometric method relative to control; type: functional
NTERA-2-cl-D1 [28] = assay: Induction of DNA fragmentation in human NT2/D1 cells at 25 uM after 6 to 24 hrs by propidium iodide/RNase staining-based capillary cytometric method; type: functional, cell-based

`CNc1nc(-c2cccc(NC(=O)c3cc4ccccc4[nH]3)c2)c[nH]1.Cl` was tested, and the Activity (THP-1 [1]) was 38.05%, the Activity (NTERA-2-cl-D1 [2]) was 2.87% and the EC50 (ASPC1) was 32 µM. The Activity (THP-1 [3]) was 36.14%, the Activity (NTERA-2-cl-D1 [4]) was 13.18% and the Activity (NTERA-2-cl-D1 [5]) was 0.11%. The Activity (THP-1 [6]) was “Active”, the Activity (NTERA-2-cl-D1 [7]) was 22.77% and the Activity (NTERA-2-cl-D1 [8]) was 6.08%. For the same compound, the Activity (NTERA-2-cl-D1 [9]) was 8.15%, the Activity (NTERA-2-cl-D1 [10]) was 23.88% and the Activity (THP-1 [11]) was 0.3%. For the same compound, the EC50 (NTERA-2-cl-D1 [12]) was 11 µM, the Activity (NTERA-2-cl-D1 [13]) was 3.59% and the Activity (THP-1 [14]) was 18.04%. For the same compound, the Activity (THP-1 [15]) was 0.1%, the Activity (THP-1 [16]) was 0.2% and the Activity (NTERA-2-cl-D1 [17]) was “Active”. It also gave a viability at 25 µM (NTERA-2-cl-D1 [18]) of 47%, a viability at 25 µM (THP-1 [19]) of 17.8% and an Activity (NTERA-2-cl-D1 [20]) of 0.17%. The Activity (NTERA-2-cl-D1 [21]) was 55.66%, the Activity (THP-1 [22]) was 5.81% and the Activity (NTERA-2-cl-D1 [23]) was 8.6%. For the same compound, the Activity (NTERA-2-cl-D1 [24]) was 3.24%, the viability at 25 µM (NTERA-2-cl-D1 [25]) was 88.8% and the Activity (NTERA-2-cl-D1 [26]) was “Active”. The Activity (THP-1 [27]) was 0.2% and the Activity (NTERA-2-cl-D1 [28]) was “Active”.
